IC50, Papp B→A and efflux ratio data for two compounds are collected here from patent US20230399411A1, “SPECIFIC ANTIBODY-DRUG-CONJUGATES (ADCS) WITH KSP INHIBITORS AND ANTI-CD123-ANTIBODIES” (Bayer Pharma Aktiengesellschaft, priority 2016, published 2023).

For one data set, the system named is NCI-H292 cells. The experiment in a line: MTT assay, cytotoxicity of metabolites. In kind it is cell-based. The settings on record: Homo sapiens, 96 h incubation. Here is the method: The analysis of the cytotoxic effects of the anti-CD123 ADCs and the corresponding metabolites was carried out with various cell lines:
NCI-H292: human mucoepidermoid lung carcinoma cells, ATCC-CRL-1848, standard medium: RPMI 1640 (Biochrom; #FG1215, stab. glutamine)+10% FCS (Biochrom; #S0415).
The cells were cultivated according to the standard method using the growth media listed under C-1. The test is carried out by detaching the cells with a solution of Accutase in PBS (Biochrom AG #L2143; in case of adherent cell), pelleting, resuspending in culture medium, counting and sowing into a 96-well culture plate with white bottom (Costar #3610) (NCI H292: 2500 cells/well; MOLM-13: 2000 cells/well; THP-1: 8000 cells/well; NB4: 7000 cells/well; KG-1: 5000 cells/well, MV-4-11: 5000 cells/well in a total volume of 100 μl). The cells were then incubated in an incubator at 37° C. and 5% carbon dioxide. After 6 h or 48 h (adherent cells) the medium was replaced. […] After 96 h, the cell proliferation was detected using the MTT assay (ATCC, Manassas, Virginia, USA, catalogue No. 30-1010K). […] The dye formed was detected at 570 nm (Infinite M1000 pro, Tecan). The measured data were used to calculate the IC50 of the growth inhibition using the DRC (dose response curve). […]

Data set [1] in a line: Caco-2 flux assay for cell permeability. In kind it is in vitro ADME. To be noted: human; for Papp B→A at 2 h: Caco-2, 2 hours. On the procedure: The cell permeability of a substance can be investigated by means of in vitro testing in a flux assay using Caco-2 cells [M. D. Troutman and D. R. Thakker, Pharm. Res. 20 (8), 1210-1224 (2003)]. For this purpose, the cells were cultured for 15-16 days on 24-well filter plates. For the determination of permeation, the respective test substance was applied in a HEPES buffer to the cells either apically (A) or basally (B) and incubated for 2 hours. After 0 hours and after 2 hours, samples were taken from the cis and trans compartments. The samples were separated by HPLC (Agilent 1200, Böblingen, Germany) using reverse phase columns. The HPLC system was coupled via a Turbo Ion Spray Interface to a Triple Quadropol mass spectrometer API 4000 (AB SCIEX Deutschland GmbH, Darmstadt, Germany). The permeability was evaluated on the basis of a Papp value, which was calculated using the formula published by Schwab et al. [D. Schwab et al., J. Med. Chem. 46, 1716-1725 (2003)]. […] Of critical importance for toxophores which are released intracellularly is the permeability from B to A [Papp (B-A)] and the ratio of Papp (B-A) to Papp (A-B) (efflux ratio): the lower this permeability, the slower the active and passive transport processes of the substance through the monolayer of Caco-2 cells.

For `CC(C)(C)[C@H](c1cc(-c2cc(F)ccc2F)cn1Cc1ccccc1)N(CCCN)C(=O)CSC[C@H](NC(=O)CCOCCOCCOCCOCCNC(=O)CNC(=O)CC(SC[C@H](N)C(=O)O)C(=O)O)C(=O)O.O=C(O)C(F)(F)F.O=C(O)C(F)(F)F` (stereo partly drawn) [Example M20, (1R,4R,27R,33R)-1-Amino-32-(3-aminopropyl)-33-[1-benzyl-4-(2,5-difluorophenyl)-1H-pyrrol-2-yl]-34,34-dimethyl-6,9,25,31-tetraoxo-13,16,19,22-tetraoxa-3,29-dithia-7,10,26,32-tetraazapentatriacontane-1,4,27-tricarboxylic acid/trifluoroacetic acid (1:2)], the IC50 with NCI-H292 cells was found to be 149 nM. Further, the Papp B→A at 2 h in data set [1] was 0.089 ×10⁻⁶ cm/s.

With `CC(C)(C)[C@H](c1cc(-c2cc(F)ccc2F)cn1Cc1ccccc1)N(CCCN)C(=O)CSC[C@H](NC(=O)CCOCCOCCOCCOCCNC(=O)CNC(=O)C(CC(=O)O)SC[C@H](N)C(=O)O)C(=O)O.O=C(O)C(F)(F)F.O=C(O)C(F)(F)F` (stereo partly drawn) [Example M21, (2R,24S,27R)-27-Amino-2-[({2-[(3-aminopropyl){(1R)-1-[1-benzyl-4-(2,5-difluorophenyl)-1H-pyrrol-2-yl]-2,2-dimethylpropyl}amino]-2-oxoethyl}sulphanyl)methyl]-24-(carboxymethyl)-4,20,23-trioxo-7,10,13,16-tetraoxa-25-thia-3,19,22-triazaoctacosane-1,28-dioic acid/trifluoroacetic acid (1:2)], the Papp B→A at 2 h in data set [1] amounted to 0.05 ×10⁻⁶ cm/s. Further, the efflux ratio at 2 h in data set [1] (Caco-2, Papp (B-A) to Papp (A-B)) amounted to 1.5.
